Measurements reported in patent US20230212124A1, “SMALL-MOLECULE INHIBITORS OF THE FRS2-FGFR INTERACTION” (UNIVERSITÄT ZÜRICH, priority 2020, published 2023).

Columns and labels:
[1] = tested on: FGFR-driven cancer cell lines; experiment: Cell titer glo assay; assay type: cell-based; conditions: all the FGFR-driven cancer cell lines tested
Method: The metabolic activity and the proliferation of the cells were determined using the Cell Titer glo assay from Promega according to the manufacturer's instructions. In brief, 250 cells/100 μl/per well (for up to 72 h incubation) were seeded in Greiner Bio-One p-clear 384 well plates (655090, Greiner Bio-One) and incubated overnight at 37° C. The old media was then replaced with fresh serum-free media and the cells were treated with BGJ398 or F3.14 till the desired time point. Following appropriate incubation for each timepoint, 10 μl of the Cell titer glo reagent was added to each well (final concentration of cell titer glo reagent per well is 1:10) and incubated at 37° C. for 30 minutes. The luminescence was then measured with a signal integration time of 0.5 to 1 second per well.

In vivo pharmacokinetics = conditions: mice, intravenous
Method: 3 Healthy non-SCID mice were intravenously treated with F3.14—Blood samples were collected at 2, 4, 6, 8 and 24 hours after treatment. Serum from the collected blood samples were isolated and the concentration of F3.14 in the serum was measure to determine the intrinsic clearance of F3.14.

[2] = In vitro ADMET: metabolic stability (intrinsic clearance, t½); assay type: in vitro ADME
Excerpt: (§1) FIG. 16 Table showing the in vitro absorption, distribution, metabolism, elimination and toxicity (ADMET) properties of F3.14.

FGF signaling pathway = experiment: Immunoblotting / pathway analysis; assay type: cell-based
Method: (§2) Cancer cells were treated with bFGF (100 ng/ml) and/or with compounds and lysed using Radioimmunoprecipitation assay (RIPA) buffer. RIPA buffer lysates were resolved by SDS-PAGE and transferred to a nitrocellulose membrane using a transfer apparatus according to the manufacturer's instructions (Bio-Rad). Membranes were probed with primary antibodies against phospho-FRS2, FRS2, ERK1/2, phospho-ERK1/2, AKT, phosphor-AKT, phospho-PKC and tubulin. HRP-linked secondary antibodies (1:5000) were used to detect the primary antibodies. Chemiluminescence detection was performed using ChemiDoc Touch Gel and Western Blot imaging system (BioRad).
as §2, with “RIPA” for “Cancer cells were treated with bFGF (100 ng/ml) and/or with compounds and lysed using Radioimmunoprecipitation assay (RIPA) buffer. RIPA”, “buffer FGFR-driven cell” for “buffer”, “phospho-AKT,” for “phosphor-AKT,”, “(BioRad). Integrated density of Immuno-reactive bands was quantified using Adobe Photoshop CS5.” for “(BioRad).”

FRS2 = target: T1, FRS2 (Homo sapiens, UniProt Q8WU20); experiment: Biophysical binding assays (nanoDSF, MST, NMR); conditions: MST and NMR analysis
T1 construct: 6xHis
T1 sequence (Q8WU20 1-508): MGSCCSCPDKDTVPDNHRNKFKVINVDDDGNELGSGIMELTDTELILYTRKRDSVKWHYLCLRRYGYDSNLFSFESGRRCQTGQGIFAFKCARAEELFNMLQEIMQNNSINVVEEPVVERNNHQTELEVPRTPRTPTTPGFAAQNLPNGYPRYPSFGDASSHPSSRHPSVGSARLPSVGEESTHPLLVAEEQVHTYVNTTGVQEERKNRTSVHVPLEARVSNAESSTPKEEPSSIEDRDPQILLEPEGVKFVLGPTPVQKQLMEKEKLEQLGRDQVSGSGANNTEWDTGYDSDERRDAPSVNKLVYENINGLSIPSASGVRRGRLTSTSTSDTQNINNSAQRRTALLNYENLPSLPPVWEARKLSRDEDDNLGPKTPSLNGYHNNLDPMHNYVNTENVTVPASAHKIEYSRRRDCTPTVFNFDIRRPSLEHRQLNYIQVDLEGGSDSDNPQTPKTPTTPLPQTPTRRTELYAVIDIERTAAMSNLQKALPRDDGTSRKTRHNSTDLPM
Method: Nano Differential Scanning Fluorimetry (nanoDSF)
Purified FRS2 protein tagged with 6× Histidine residues and Guanine nucleotide-binding protein subunit beta (GB1) was diluted in the protein buffer (100 mM sodium phosphate, 50 mM NaCl, 0.5 mM EDTA, 50 mM arginine, 1 mM TCEP, pH 7.0) to final concentration of 30 μM. The compounds were dissolved in 100% at 50 or 100 mM and further diluted to 1 mM with a final concentration of 100% DMSO. Compound and protein were mixed at 1:1 ration yielding final concentrations of 15 μM and 500 μM for the compounds. The mixture was incubated at room temperature for 15 minutes before measurement. The measurement was performed on a Prometheus system in high sensitivity capillaries. Samples were subjected to a temperature gradient of 20 to 95° C. with 1° C./min intervals.
Microscale Thermophoresis (MST)
Purified FRS2 protein tagged with 6× Histidine residues and Guanine nucleotide-binding protein subunit beta (GB1) was labelled with 2nd generation BLUE-NHS dye. The protein was labelled at a final concentration of 20 µM with 60 μM dye. The labelling was performed in the protein buffer without arginine supplementation. Arginine was re-buffered to protein's buffer post-labelling. The compounds were dissolved in 100% at 50 or 100 mM and further diluted to 1 mM with a final concentration of 100% DMSO. […] The interaction was measured in two independent duplicates.

[3] = In vitro ADMET: semi-thermodynamic solubility; assay type: physicochemical; conditions: aqueous solutions
Excerpt: as §1

[4] = In vitro ADMET: toxicity (MTT); assay type: cell-based
Excerpt: as §1

[5] = In vitro ADMET: permeability (efflux ratio); assay type: in vitro ADME
Excerpt: as §1

[6] = In vitro ADMET table: potency; assay type: cell-based
Excerpt: as §1

[7] = tested on: FGFR-driven cancer cell lines; experiment: Spheroid invasion assay; assay type: cell-based; conditions: all the FGFR-driven cancer cell lines tested
Method: Spheroid Invasion Assay (S/A) and Automated Cell Dissemination Counter (aCDc)
1000 cells/100 μl per well were seeded in cell-repellent 96 well microplate (650790, Greiner Bio-one). The cells were incubated at 37° C. overnight to form spheroids. 70 μl of the medium were removed from each well, and remaining medium with spheroid overlaid with 2.5% bovine collagen 1. Following the polymerization of collagen, fresh medium was added to the cells and treated with growth factors and/or with inhibitors. The cells were allowed to invade the collagen matrix for 24 h, after which they were fixed with 4% PFA and stained with Hoechst. Images were acquired on an Axio Observer 2 mot plus fluorescence microscope (Zeiss, Munic, Germany) using a 5×objective. Cell invasion is determined as the average of the distance invaded by the cells from the centre of the spheroid as determined using automated cell dissemination counter (aCDc) with our cell dissemination counter software aSDlcs (Kumar et al., Sci Rep 5, 15338 (2015)).

CC(C)C[C@@H](CO)NCc1cc(O)c2cc(F)ccc2n1 [Compound F3.14]
inhibition of cancer cell proliferation [1]: effectively inhibits | tolerability (In vivo pharmacokinetics): well-tolerated | intrinsic clearance [2]: moderate | effect on FGF signal transduction (phosphorylation of downstream effectors) (FGF signaling pathway): inhibits the FGF signal transduction by inhibiting the phosphorylation of the downstream effectors | binding to FRS2 (FRS2): confirmed the binding of F3.14 to FRS2 | solubility [3]: very good | toxicities [4]: very low | permeability [5]: good | potency [6]: high | inhibition of cancer cell invasion [7]: effectively inhibits
